Experimental data from ChEMBL document CHEMBL6096661, “Synthesis, biological evaluation and mechanism study of a novel indole-pyridine chalcone derivative as antiproliferative agent against tumor cells through dual targeting tubulin and HK2” (Eur J Med Chem, 2025).
Activity calls are given as the source filed them. The rule behind the calls is not given here.

Key:
LoVo = test: Antiproliferative activity against human LoVo cells assessed as inhibition of cell proliferation incubated for 1 day by CCK-8 assay; format: functional, cell-based; conditions: 24 h
HCT-116 [1] = test: Antiproliferative activity against human HCT-116 cells assessed as inhibition of cell proliferation incubated for 3 days by CCK-8 assay; format: functional, cell-based; conditions: HCT-116, 72 h
MDA-MB-231 [2] = test: Induction of apoptosis in human MDA-MB-231 cells assessed as upregulation of Bax level by Western blotting analysis; format: functional, cell-based; conditions: dose 0.5-2 µM
MDA-MB-231 [3] = test: Induction of apoptosis in human MDA-MB-231 cells assessed as decrease in Cyclin A level by Western blotting analysis; format: functional, cell-based; conditions: dose 0.5-2 µM
MDA-MB-231 [4] = test: Induction of apoptosis in human MDA-MB-231 cells assessed as increase in total apoptotic cells by annexin-V/PI double staining based flow cytometric analysis; format: functional, cell-based; conditions: dose 0.5-2 µM
MDA-MB-231 [5] = test: Inhibition of colony formation in human MDA-MB-231 cells assessed as reduction in number of colonies at 1 uM incubated for 8 days by crystal violet staining based assay; format: functional, cell-based; conditions: time 8.0 day
MDA-MB-231 [6] = test: Induction of ROS generation in human MDA-MB-231 cells assessed as increase in green fluorescence at 2 uM incubated for 24 hrs by DCFH-DA staining based flow cytometric analysis (reference value: 62.3 %); format: functional
MDA-MB-231 [7] = test: Induction of ROS generation in human MDA-MB-231 cells assessed as increase in green fluorescence at 0.5 uM incubated for 24 hrs by DCFH-DA staining based flow cytometric analysis (reference value: 62.3 %); format: functional
HCT-116 [8] = test: Antiproliferative activity against human HCT-116 cells assessed as inhibition of cell growth incubated for 48 hrs by CCK-8 assay; format: functional, cell-based; conditions: HCT-116, 48 h
MDA-MB-231 [9] = test: Induction of cell cycle arrest in human MDA-MB-231 cells assessed as decreased proportion of cells at G1 phase at 0.5 to 2 uM by flow cytometric analysis; format: functional, cell-based; conditions: dose 0.5-2 µM
Tubulin (Homo sapiens) [10] = target: T1, Tubulin (Homo sapiens) (UniProt P68371+Q9H4B7+P0DPH7+P68366+Q13509+Q71U36+P04350+Q3ZCM7+P07437+P68363+Q9BQE3+Q6PEY2+Q13885+Q9BVA1+Q9BUF5); test: Disruption of microtubule network in human MDA-MB-231 cells assessed as point-like fiber structure at 1 to 2 uM incubated for 24 hrs by DAPI staining based fluorescence microscopic analysis; format: cell-based; conditions: dose 1-2 µM
ASPC1 = test: Antiproliferative activity against human ASPC1 cells assessed as inhibition of cell growth incubated for 48 hrs by CCK-8 assay; format: functional, cell-based; conditions: ASPC1, 48 h
MDA-MB-231 [11] = test: Induction of morphological changes in human MDA-MB-231 assessed as cell contraction at 0.5 to 2 uM incubated for 48 hrs by microscopic analysis; format: functional, cell-based; conditions: dose 0.5-2 µM
HT-1080 = test: Antiproliferative activity against human HT-1080 cells assessed as inhibition of cell growth incubated for 48 hrs by CCK-8 assay; format: functional, cell-based; conditions: HT-1080, 48 h
Mitochondrial membrane = test: […] in human MDA-MB-231 cells at 0.5 uM by JC-1 fluorescent probe based flow cytometric analysis (reference value: 2.56 %)
SW480 = test: Antiproliferative activity against human SW480 cells assessed as inhibition of cell growth incubated for 48 hrs by CCK-8 assay; format: functional, cell-based; conditions: SW480, 48 h
MDA-MB-231 [12] = test: Induction of apoptosis in human MDA-MB-231 cells assessed as decrease in HIF-1a level by Western blotting analysis; format: functional, cell-based; conditions: dose 0.5-2 µM
MDA-MB-231 [13] = test: Induction of apoptosis in human MDA-MB-231 cells assessed as increase in total apoptotic cells at 0.5 to 2 uM by annexin-V/PI double staining based flow cytometric analysis; format: functional, cell-based; conditions: dose 0.5-2 µM
Tubulin (Homo sapiens) [14] = target: T1, Tubulin (Homo sapiens); test: Disruption of microtubule network in human MDA-MB-231 cells assessed as disorganized microtubule network at 1 to 2 uM incubated for 24 hrs by DAPI staining based fluorescence microscopic analysis; format: cell-based; conditions: dose 1-2 µM
MDA-MB-231 [15] = test: Antiproliferative activity against human MDA-MB-231 cells assessed as reduction in cell proliferation incubated for 48 hrs by CCK-8 assay; format: functional, cell-based; conditions: MDA-MB-231, 48 h
BXPC-3 = test: Antiproliferative activity against human BXPC-3 cells assessed as inhibition of cell growth incubated for 48 hrs by CCK-8 assay; format: functional, cell-based; conditions: BXPC-3, 48 h
MDA-MB-231 [16] = test: Induction of morphological changes in human MDA-MB-231 assessed as cell rounding at 0.5 to 2 uM incubated for 48 hrs by microscopic analysis; format: functional, cell-based; conditions: dose 0.5-2 µM
MDA-MB-231 [17] = test: Antiproliferative activity against human MDA-MB-231 cells assessed as inhibition of cell proliferation incubated for 3 days by CCK-8 assay; format: functional, cell-based; conditions: MDA-MB-231, 72 h
MDA-MB-231 [18] = test: Antiproliferative activity against human MDA-MB-231 cells assessed as inhibition of cell proliferation incubated for 4 days by CCK-8 assay; format: functional, cell-based; conditions: MDA-MB-231, 96 h
Tubulin (Homo sapiens) [19] = target: T1, Tubulin (Homo sapiens); test: Disruption of microtubule network in human MDA-MB-231 cells assessed as punctate fiber structure at 1 to 2 uM incubated for 24 hrs by DAPI staining based fluorescence microscopic analysis; format: cell-based; conditions: dose 1-2 µM

## O=C(/C=C/c1cn(S(=O)(=O)c2ccc([N+](=O)[O-])cc2)c2ccc(N3CCOCC3)cc12)c1cccnc1
LoVo
  IC50: 1170 nM
HCT-116 [1]
  IC50: 393 nM
MDA-MB-231 [2]
  Activity: Dose-dependent-effect
MDA-MB-231 [3]
  Activity: Dose-dependent-effect
MDA-MB-231 [4]
  Activity: Dose-dependent-effect
MDA-MB-231 [5]
  inhibition: Active
MDA-MB-231 [6]
  Activity: 92.8%
MDA-MB-231 [7]
  Activity: 88.4%
HCT-116 [8]
  IC50: 512 nM
MDA-MB-231 [9]
  Activity: Active
Tubulin (Homo sapiens) [10]
  Activity: Active
ASPC1
  IC50: 1110 nM
MDA-MB-231 [11]
  Activity: Active
HT-1080
  IC50: 872 nM
Mitochondrial membrane
  Activity: 5.5%
SW480
  IC50: 687 nM
MDA-MB-231 [12]
  Activity: Dose-dependent-effect
MDA-MB-231 [13]
  Activity: Time-dependent-effect
Tubulin (Homo sapiens) [14]
  Activity: Active
MDA-MB-231 [15]
  IC50: 707 nM
BXPC-3
  IC50: 1270 nM
MDA-MB-231 [16]
  Activity: Active
MDA-MB-231 [17]
  IC50: 561 nM
MDA-MB-231 [18]
  IC50: 938 nM
Tubulin (Homo sapiens) [19]
  Activity: Active
